For this assay, the target named is T1, P2Y12 receptor (Homo sapiens, UniProt Q9H244).
T1 construct: expressed in transfected cells; host or cells: CHO cells (membranes)
The assay is described as follows: Functional inhibition of 2-Me-S-ADP induced P2Y12 signalling (35S-GTPγS binding, membranes from P2Y12 transfected CHO-cells). Type of assay: biochemical. The note with it: EC80 concentration of agonist 2-methyl-thio-adenosine diphosphate, 30° C. for 45 min. On the procedure:
Functional inhibition of the P2Y12 receptor can be measured by in vitro assays using cell membranes from P2Y12 transfected CHO-cells, the methodology is indicated below.
Functional inhibition of 2-Me-S-ADP induced P2Y12 signalling: 5 μg of membranes were diluted in 200 μl of 200 mM NaCl, 1 mM MgCl2, 50 mM HEPES (pH 7.4), 0.01% BSA, 30 μg/ml saponin and 10 μM GDP. To this was added an EC80 concentration of agonist (2-methyl-thio-adenosine diphosphate), the required concentration of test compound and 0.1 μCi ^35S-GTPγS. The reaction was allowed to proceed at 30° C. for 45 min. Samples were then transferred on to GF/B filters using a cell harvester and washed with wash buffer (50 mM Tris (pH 7.4), 5 mM MgCl2, 50 mM NaCl). Filters were then covered with scintillate and counted for the amount of ^35S-GTPγS retained by the filter. Maximum activity was that determined in the presence of the agonist and minimum activity in the absence of the agonist following subtraction of the value determined for non-specific activity. The effect of compounds at various concentrations was plotted according to the equation y=A+((B−A)/(1+((C/x)ˆD))) and IC50 estimated where
A is the bottom plateau of the curve i.e. the final minimum y value
B is the top of the plateau of the curve i.e. the final maximum y value
C is the x value at the middle of the curve. This represents the log EC50 value when A+B=100 […]
For orientation: GTPγS is a poorly hydrolysed GTP analogue; its binding reports G protein activation.

The record followed here is US20080032992A1, “New Pyridine Analogues V” (ASTRAZENECA AB, priority 2006, published 2008).

T1 sequence (Q9H244 whole entry): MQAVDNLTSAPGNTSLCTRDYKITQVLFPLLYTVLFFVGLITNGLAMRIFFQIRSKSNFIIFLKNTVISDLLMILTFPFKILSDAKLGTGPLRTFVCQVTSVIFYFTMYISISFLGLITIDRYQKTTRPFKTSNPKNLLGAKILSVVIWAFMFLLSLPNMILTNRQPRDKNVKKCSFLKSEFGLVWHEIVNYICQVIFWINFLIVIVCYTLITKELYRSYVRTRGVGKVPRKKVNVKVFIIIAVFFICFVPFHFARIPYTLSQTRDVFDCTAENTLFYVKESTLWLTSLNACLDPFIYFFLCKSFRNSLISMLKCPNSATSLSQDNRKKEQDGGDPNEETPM

As a reminder, the IC50 is the concentration at which inhibition is half-maximal. Low readings indicate higher potency, high ones lower potency. Regarding `CCOC(=O)c1cc(C#N)c(N2CCN(Cc3cn(-c4ccccc4)nn3)CC2)nc1C` [Example 2, Ethyl 5-cyano-2-methyl-6-{4-[(1-phenyl-1H-1,2,3-triazol-4-yl)methyl]piperazin-1-yl}nicotinate], the IC50 stood at 690 nM.
Consider `CCOC(=O)c1cc(C#N)c(N2CCC(c3nnc(-c4ccccc4)[nH]3)CC2)nc1C` [Example 3, Ethyl 5-cyano-2-methyl-6-[4-(5-phenyl-4-h-1,2,4-triazol-3-yl)piperidin-1-yl]nicotinate], for which the IC50 worked out at 330 nM.
